Results reported in paper PMC11224357, “Green, facile synthesis and evaluation of unsymmetrical carbamide derivatives as antimicrobial and anticancer agents with mechanistic insights” (Scientific Reports, 2024).
≈ marks a conversion by molar mass, not a printed value.

Columns and labels:
[1] = tested on: HCT-116 (human colon cancer); assay: MTT cytotoxicity assay; type: cell-based; conditions: HCT-116, MTT, 48 h
Description: (§1) The MTT 3-(4,5-dimethylthiazol-2-yl)-2,5-diphenyl-tetrazolium bromide (Bio Basic Canada Inc. Toronto, Canada) assay was used to assess cell viability. The procedures were carried out in a biosafety class II sterile laminar air flow cabinet (Baker, SG403INT; Sanford, ME, USA). […] Cells were seeded at a density of (10^4 cells/well) into 96-well micro titer polypropylene plates and left to adhere for 24 h. The media was aspirated and the test chemicals were given to the cells in a single dose of 100 µM in DMSO. After 48 h of incubation, 40 µL of MTT salt ([…]) was applied to each well. […] Instead of the tested substances, the medium was applied to the untreated cells (negative control). […] The testing substance was dissolved in dimethylsulfoxide (DMSO), and its final concentration in the cells was less than 0.2%. The solvent concentration was the same for all medications and between the control and drug treatments at the same dilution.

[2] = tested on: MCF-7 (human breast cancer); assay: MTT cytotoxicity assay; type: cell-based; conditions: Homo sapiens, MCF-7, 48 h; for IC50: MCF7, 48 h, MTT
Description: as §1, with “The media was aspirated and the test chemicals were given to the cells in a single dose of 100 µM in DMSO.” left out

[3] = tested on: Aspergillus fumagitus; assay: MIC by microdilution (CLSI); type: cell-based; conditions: read-out: Minimum inhibitory concentration (MIC)
Description: (§2) For this purpose, serial dilution of the potent compounds was carried out to obtain the desired concentrations (i.e. 10–400 µg/mL). In brief, a defined weight for each selected compound was dissolved in dimethylsulphoxide (DMSO) and used as a stock solution[29]. The determination of the MIC value for each targeted compound was known as the lowest concentration of each sample that yielded a minimum number of colony-forming units (CFU) compared to the untreated samples[28].

[4] = tested on: Candida albicans; assay: MIC by microdilution (CLSI); type: cell-based; conditions: read-out: Minimum inhibitory concentration (MIC)
Description: as §2

[5] = tested on: Aspergillus fumagitus; assay: Agar well diffusion; type: cell-based; conditions: Aspergillus fumagitus; 20 µg/mL; read-out: Inhibition Zone
Source text: (§3) The antimicrobial efficiency of the synthesized unsymmetrical carbamide derivatives was screened using standard clinical pathogens derived from Department of Microbiology and Immunology, Faculty of Medicine (Boys), Al-Azhar University. The tested microbial pathogens used in this study were as follows, two Gram-positive bacteria (Bacillus subtilis, Staphylococcus aureus), two Gram-negative bacteria (Pseudomonas aerginousea, klebsiella pneumoniae) and two fungi (Candida albicans, Aspergillus fumgitus). Before each antimicrobial examination, pre-activation of each microbial pathogen was implemented using specific growth conditions. For bacterial ones, preinoculum was prepared using Nuitrent broth medium (Codalab, Spain) at 37 °C for 24 h. while the fungal pathogens were activated using Potato Dextrose broth (Codalab, Spain) at 28 °C for 48 h. Consequently, each tested pathogen justified its inoculum size based on Colony Forming Units (CFU) to be closed to […] during all antimicrobial tests.

[6] = tested on: Bacillus subtilis; assay: Agar well diffusion; type: cell-based; conditions: 20 µg/mL, read-out: Inhibition Zone
Source text: as §3, with “For bacterial ones, preinoculum was prepared using Nuitrent broth medium (Codalab, Spain) at 37 °C for 24 h. while the fungal pathogens were activated using Potato Dextrose broth (Codalab, Spain) at 28 °C for 48 h.” left out

[7] = tested on: Klebsiella pneumonia; assay: Agar well diffusion; type: cell-based; conditions: Klebsiella pneumoniae; Klebsiella pneumonia; 20 µg/mL; read-out: Inhibition Zone
Source text: as §3, with “For bacterial ones, preinoculum was prepared using Nuitrent broth medium (Codalab, Spain) at 37 °C for 24 h. while the fungal pathogens were activated using Potato Dextrose broth (Codalab, Spain) at 28 °C for 48 h.” left out

[8] = tested on: Pseudomonas aeruginosa; assay: Agar well diffusion; type: cell-based; conditions: 20 µg/mL, read-out: Inhibition Zone
Source text: as §3, with “For bacterial ones, preinoculum was prepared using Nuitrent broth medium (Codalab, Spain) at 37 °C for 24 h. while the fungal pathogens were activated using Potato Dextrose broth (Codalab, Spain) at 28 °C for 48 h.” left out

[9] = tested on: Staphylococcus aureus; assay: Agar well diffusion; type: cell-based
Source text: as §3, with “For bacterial ones, preinoculum was prepared using Nuitrent broth medium (Codalab, Spain) at 37 °C for 24 h. while the fungal pathogens were activated using Potato Dextrose broth (Codalab, Spain) at 28 °C for 48 h.” left out

[10] = tested on: Candida albicans; assay: Agar well diffusion; type: cell-based; conditions: 20 µg/mL, read-out: Inhibition Zone
Source text: as §3

[11] = tested on: Bacillus subtilis; assay: MIC by microdilution (CLSI); type: cell-based; conditions: read-out: Minimum inhibitory concentration (MIC)
Description: (§4) In brief, a defined weight for each selected compound was dissolved in dimethylsulphoxide (DMSO) and used as a stock solution[29].

[12] = tested on: Pseudomonas aeruginosa; assay: MIC by microdilution (CLSI); type: cell-based; conditions: read-out: Minimum inhibitory concentration (MIC)
Description: as §4

[13] = tested on: Staphylococcus aureus; assay: MIC by microdilution (CLSI); type: cell-based; conditions: read-out: Minimum inhibitory concentration (MIC)
Description: as §4

Row | Structure (SMILES) | IC50 [1] [µM] | IC50 [2] [µM] | MIC [3] [mg/L] | MIC [4] [mg/L] | zone of inhibition at 20 µg/mL [5] [mm] | zone of inhibition at 20 µg/mL [6] [mm] | zone of inhibition at 20 µg/mL [7] [mm] | zone of inhibition at 20 µg/mL [8] [mm] | zone of inhibition at 20 µg/mL [9] [mm] | melting point [°C] | zone of inhibition at 20 µg/mL [10] [mm] | MIC [11] [mg/L] | MIC [12] [mg/L] | MIC [13] [mg/L] | cytotoxicity at 100 µM ([2]; MCF7, single dose 100 µM, read-out: Cytotoxicity (%)) [%]
1 | COc1cccc2c1C(=O)c1c(O)c3c(c(O)c1C2=O)C[C@@](O)(C(=O)CO)C[C@@H]3O[C@H]1C[C@H](N)[C@H](O)[C@H](C)O1 [Doxorubicin, doxorubicin, reference compound] | 65.1 ± 0.141 | 45 ± 0.123 | – | – | – | – | – | – | – | – | – | – | – | – | –
2 | OC(Cn1cncn1)(Cn1cncn1)c1ccc(F)cc1F [Fluconazole, reference compound] | – | – | > 400 | > 400 | – | – | – | – | – | – | – | – | – | – | –
3 | Cc1ccc(S(=O)(=O)NC(=O)N2CCCC2)cc1 [Compound 9, N-tosylpyrrolidine-1-carboxamide] | – | – | – | – | 2 | 6 | 2 | 2 | 4 | 228 to 230 | – | – | – | – | –
4 | Cc1ccc(NC(=O)NC23CC4CC(CC(C4)C2)C3)cc1 [Compound 18, 1-(Adamantan-1-yl)-3-(p-tolyl)urea] | – | – | – | – | 3 | 2 | – | – | – | 180 to 182 | 2 | – | – | – | –
5 | O=C(Nc1ccccc1)N1CCOCC1 [Compound 20, N-phenylmorpholine-4-carboxamide] | – | – | – | – | 2 | 2 | 4 | 3 | – | – | 3 | – | – | – | –
6 | Cc1ccc(S(=O)(=O)NC(=O)N2CCCCC2)cc1 [Compound 12, N-tosylpiperidine-1-carboxamide] | – | – | – | – | – | – | 3 | – | 3 | 232 to 235 | 2 | – | – | – | –
7 | Cc1ccc(NC(=O)N2CCCC2)cc1 [Compound 14, N-(p-tolyl)pyrrolidine-1-carboxamide] | – | – | – | – | 3 | 4 | 2 | – | 3 | 180 to 182 | 8 | – | – | – | –
8 | Cc1ccc(NC(=O)N2CCN(C)CC2)cc1 [Compound 16, 4-Methyl-N-(p-tolyl)piperazine-1-carboxamide] | – | – | 80 (≈ 343 µM) | 10 (≈ 42.9 µM) | 3 | 2 | 5 | 3 | 2 | 252 to 253 | 5 | 160 (≈ 686 µM) | 160 (≈ 686 µM) | 320 (≈ 1370 µM) | –
9 | C[C@@H]1[C@H](O)[C@@H](C)/C=C/C=C/C=C/C=C/C=C/C=C/C=C/[C@H](O[C@@H]2O[C@H](C)[C@@H](O)[C@H](N)[C@@H]2O)C[C@@H]2O[C@](O)(C[C@@H](O)C[C@@H](O)[C@H](O)CC[C@@H](O)C[C@@H](O)CC(=O)O[C@H]1C)C[C@H](O)[C@H]2C(=O)O [Amphotericin B, reference compound] | – | – | 20 (≈ 21.6 µM) | 40 (≈ 43.3 µM) | 5 | – | – | – | – | – | 4 | – | – | – | –
10 | O=C(Nc1ccccc1)N1CCCC1 [Compound 19, N-phenylpyrrolidine-1-carboxamide] | – | – | 40 (≈ 210 µM) | 10 (≈ 52.6 µM) | 3 | 2 | 4 | 2 | 2 | 233 to 235 | 4 | 80 (≈ 421 µM) | 80 (≈ 421 µM) | 160 (≈ 841 µM) | –
11 | Cc1ccc(S(=O)(=O)NC(=O)N2CCN(C)CC2)cc1 [Compound 11, 4-Methyl-N-tosylpiperazine-1-carboxamide] | – | – | – | – | – | – | 2 | – | 2 | 190 to 192 | – | – | – | – | –
12 | O=C(Nc1ccccc1)NC12CC3CC(CC(C3)C1)C2 [Compound 23, 1-(Adamantan-1-yl)-3-phenylurea] | – | 68.6 ± 0.116 | – | – | – | 3 | 2 | – | 2 | – | 3 | – | – | – | ≥ 51
